In US20180051284A1, “INHIBITORS OF MIR-17-92 CLUSTER FOR ANTI-TUMOR ACTIVITY IN MULTIPLE MYELOMA AND OTHER MALIGNANCIES” (priority 2014, published 2018):
l = locked nucleic acid (LNA); d = 2'-deoxy (DNA)

Tests used:
[1] = test system: RPMI-8226, KMS-12-BM and NCI-H929 cells; assay: Cell viability by flow cytometry of 7-AAD stained cells, gapmer versus single miRNA inhibitors; format: cell-based, Human; conditions: transfection with 25 nM
Method: Commercial miRNA inhibitors for miR-17a, miR-18a, miR-19a, miR-19b, miR-20a and miR-92a were purchased from Ambion (Applied Biosystems, Calif., U.S.).
3×10^5 cells were transfected using Neon Transfection System (Invitrogen, Calif.,U.S.), (2 pulses at 1150, 30ms). The transfection efficiency evaluated by flow-cytometric analysis relative to a FAM dye—labeled anti-miR—negative control reached 85% to 90%.
(§1) 7-aminoactinomycin was used to evaluate cell viability. The staining was performed according to manufacturer's instructions.
To this aim, we transfected three different MM cell lines with 25 nM of either gapmer_06 or miRNA inhibitors from Ambion or RNase free water as control.

[2] = test system: MM cell lines; assay: CCK-8 cell growth analysis after gymnotic exposure; format: cell-based, Human; conditions: six days gymnotic exposure, 100 nM to 20 μM; ten MM cell lines; units printed inside the value (nM lower, μM upper); read-out: IC50 values by CCK-8 assay, range over MM cell lines
Method: Cells were seeded at low plating density in order to reach confluence on the final day of the experiments (day 6). Cell number at plating ranged from 0.5 to 2.5×10^3 in 96-well plates, from 2.5 to 10×10^3 in 12-well plates and from 1 to 3×10^4 in 6-well plates.
The LNA/DNA Gapmers were used at concentrations ranging from 0.1 to 20 μM.
Cells were seeded in 100 μL (suspension cell lines) or 50 μL (adherent cell lines) of culture medium at a density ranging from 0,5 to 2,5×10^3 cells per well. Survival was evaluated by both Cell Counting Kit-8 colorimetric assay (CCK-8, Dojindo Molecular Technologies, Japan) and CellTiter-Glo Luminescent Cell Viability Assay (Promega Madison, Wis., USA). Assays were performed according to the manufacturer's instructions. The optical density (OD) was evaluated at wave length of 450 nm. Both OD and luminescence were recorded with the GloMax-multi detection system (Promega, Madison, Wis., USA).

[3] = test system: CD138+ primary MM cells from bone marrow aspirates of myeloma patients; assay: Cell viability (7-AAD) of primary myeloma cells after gymnotic exposure; format: cell-based, Human; conditions: 6 days gymnotic exposure, 2.5, 5 or 10 μM; cultured with HS-5 stromal cells
Method: Following informed consent approved by our University Hospital Ethical Commitee, CD138+cells were isolated from the BM aspirates of both Monoclonal gammopathy of undetermined significance (MGUS) and myeloma patients by Ficoll-Hypaque density gradient sedimentation followed by antibody-mediated positive selection using anti-CD138 magnetic activated cell separation microbeads (Miltenyi Biotech, Gladbach, Germany). Purity of immunoselected cells were assessed by flow-cytometric analysis using a phycoerythrin-conjugated CD138 monoclonal antibody by standard procedures.
as §1
CD138+malignant plasma cells derived from bone marrow aspirates of 11 myeloma patients were cultured in presence of human stromal HS-5 cells.

[4] = test system: PTEN, AKT, ERK, E2F-1, p14/ARF-p53 and intrinsic apoptotic pathway proteins in NCI-H929 cells; assay: Western blot analysis of molecular perturbations after gymnotic exposure; format: cell-based, Human
Method: SDS-PAGE and Western Blotting (WB) were performed according to standard protocols. Briefly, cells were lysed by lysis buffer containing 15mM Tris/HCl pH 7.5, 120mM NaCl, 25mM KCI, 1mM EDTA, 0.5% Triton 100, Halt Protease Inhibitor Single-Use cocktail (100X, Thermo Scientific). Whole cells lysates (50 μg per lane) were separated using 4-12% Novex Bis-Tris SDS-acrylamide gels (Invitrogen), electro-transferred on Nitrocellulose membranes (Bio-Rad), and immunoblotted with the antibodies. Membranes were washed 3 times in PBS-Tween and then incubated with a secondary antibody conjugated with horseradish peroxidase in 0.5% milk for 2 hours at room temperature. Chemiluminescence was detected using Western Blotting Luminol Reagent (sc-2048, Santa Cruz, Dallas, Tex., USA). Signal intensity was quantified with the Quantity One Analyzing System (Bio-Rad).
MiRNAs are a class of non coding RNAs that regulate gene expression at post-transcriptional levels. Each miRNA may regulate the expression of several (hundreds) genes. Since LNA/DNA gapmers inhibit the biogenisis of the six members of the miR-17-92 cluster, a wide perturbation in the expression of target genes is predictable. Therefore, we gymnotically exposed NCI-H929 cells for 6 days to gapmer_06 or scrambled controls and, by western blotting, we analyzed molecular perturbations at protein levels.

[5] = test system: U266 cells; assay: U266 orthotopic model of human MM (IVIS); format: in vivo, mice; conditions: I.P. 2 mg/kg at day 1-4-8-15-22; compared to controls
Description: Male CB-17 severe combined immunodeficient (SCID) mice (6- to 8-weeks old; Harlan Laboratories, Inc., Indianapolis) were housed and monitored in our Animal Research Facility. All experimental procedures and protocols had been approved by the Institutional Ethical Committee (Magna Graecia University) and conducted according to protocols approved by the National Directorate of Veterinary Services (Italy). In accordance with institutional guidelines, mice were sacrificed when tumors reached 2 cm in diameter or in the event of paralysis or major compromise, to prevent unnecessary suffering. […] Mice were also inoculated with 5×10^6 luciferase gene-marked U266, AMO-1, AMO-1/abzb, treatments were performed intraperitoneally (i.p.), and tumor volume were measured by IVIS Lumina II.
The in vivo activity of gapmer_06 was also evaluate in a orthotopic model of human MM using U266 cells, to explore the efficacy in relation to the microenvironment. […] Tumor growth was monitored using IVIS LUMINA II Imaging System. […] Engraftment was determined by sacrificing mice after 10 weeks and analyzing bone marrow for luciferase gene-marked U266 cells. […] Mice were treated I.P. with gapmer_06 at concentration of 2 mg/kg at day 1-4-8-15-22, and serum shulL-6R levels were serially determined as a marker of tumor growth.

[6] = NCI-H929, 6 days gymnotic exposure, 2,5 μM

## gapmer_06: LNA/DNA gapmer, SEQ ID 4 (14 mer): +T*+A*+C*T*T*G*C*T*T*G*G*+C*+T*+T; + LNA, * phosphorothioate (antisense TACTTGCTTGGCTT; sugars from the 5' end l3 d8 l3, all phosphorothioate, methylation of C not given here)
[1]
  biological effect on cell viability (flow cytometry, 7-AAD) compared with single miRNA inhibitors: strongest biological effects
[2]
  IC50: 500 to 8000 nM
[3]
  dead myeloma cells (7-AAD staining): significant increase of dead myeloma cells
[4]; [6]
  E2F-1 protein level (Western Blot): strongly up-regulated
  anti-apoptotic proteins Bcl-2, Mcl-1 (Western Blot): down-regulation of anti-apoptotic proteins
  caspase-3 cleavage (Western Blot): caspase-3 cleavege
  p-AKT and p-ERK (phosphorylated/active forms, Western Blot): reduction of the phopshorylated / active forms
  pro-apoptotic proteins Puma, Bak, Bax, Bid and Bim (Western Blot): up-regulation of pro-apototic proteins
[4]; NCI-H929, 6 days gymnotic exposure, 2,5 μM, vs scrambled controls
  PTEN protein level (Western Blot): strong up-regulation
[4]; p53-wild-type NCI-H929, 6 days gymnotic exposure, 2,5 μM
  p14/ARF-p53 fail-safe axis (Western Blot): triggers the p14/ARF-p53 fail-safe axis
[5]
  tumor growth (IVIS): significant tumor-growth inhibition
